Like-named read-outs stand apart in the source and are kept apart here.
Tested on: fecal microbiota
Conditions: fecal samples, 11 weeks consumption
Method: Illumina sequence reads were mapped to the human microbiome reference genome database of the Human Microbiome Project [www(dot)hmpdacc(dot)org/HMREFG/^32], and to a gut microbial gene catalogue^33 using GEM mapper^58 with the following parameters: • -m 3 -s 0 -q offset-33 -gem-quality-threshold 26
Microbial species abundance was measured as the fraction of reads that mapped to a single species in the database. An EM algorithm adapted from Pathoscope^59 was employed to determine the correct assignment of reads that mapped to more than one species. We considered only species for which at least 10% of the genome was covered (each coverage bin was 10,000-bp long) in at least one of the growth conditions (saccharin, water, or glucose). Reads mapped to the gut microbial gene catalogue were assigned a KEGG^34,35 ID according to the mapping available with the catalogue. Genes were subsequently mapped to KEGG pathways, and only pathways whose gene coverage was above 0.2 were included.

SMILES: OC[C@H]1OC(O)[C@H](O)[C@@H](O)[C@@H]1O (stereo partly drawn) [Glucose]
- Fold change (week 11/week 0) in relative species abundance (Symbol BACT_9, Number 996): 1.24
- Fold change (week 11/week 0) in relative species abundance (Symbol BACT_49, Number 420): 0.15
- Fold change (week 11/week 0) in relative species abundance (Symbol BACT_60, Number 752): 0.88
- Fold change (week 11/week 0) in relative species abundance (Symbol BACT_65, Number 918): 1.20
- Fold change (week 11/week 0) in relative species abundance (Symbol BACT_70, Number 863): 1.58
- Fold change (week 11/week 0) in relative species abundance (Symbol BACT_85, Number 934): 0.91
- Fold change (week 11/week 0) in relative species abundance (Symbol BACT_170, Number 883): 0.93
- Fold change (week 11/week 0) in relative species abundance (Symbol BACT_171, Number 748): 1.24
- Fold change (week 11/week 0) in relative species abundance (Symbol BACT_178, Number 921): 1.53
- Fold change (week 11/week 0) in relative species abundance (Symbol BACT_181, Number 767): 1.14
- Fold change (week 11/week 0) in relative species abundance (Symbol BACT_185, Number 633): 5.63
- Fold change (week 11/week 0) in relative species abundance (Symbol BACT_189, Number 636): 1.66
- Fold change (week 11/week 0) in relative species abundance (Symbol BACT_192, Number 995): 0.86
- Fold change (week 11/week 0) in relative species abundance (Symbol BACT_195, Number 523): 1.15
- Fold change (week 11/week 0) in relative species abundance (Symbol BACT_225, Number 953): 1.18
- Fold change (week 11/week 0) in relative species abundance (Symbol BACT_258, Number 620): 1.13
- Fold change (week 11/week 0) in relative species abundance (Symbol BACT_260, Number 1443): 0.94
- Fold change (week 11/week 0) in relative species abundance (Symbol BACT_300, Number 769): 1.16
- Fold change (week 11/week 0) in relative species abundance (Symbol BACT_413, Number 847): 1.17
- Fold change (week 11/week 0) in relative species abundance (Symbol BACT_419, Number 920): 0.67
- Fold change (week 11/week 0) in relative species abundance (Symbol BACT_420, Number 922): 0.87
- Fold change (week 11/week 0) in relative species abundance (Symbol BACT_424, Number 906): 1.13
- Fold change (week 11/week 0) in relative species abundance (Symbol BACT_449, Number 772): 1.13
- Fold change (week 11/week 0) in relative species abundance (Symbol BACT_463, Number 719): 1.55
- Fold change (week 11/week 0) in relative species abundance (Symbol BACT_496, Number 765): 0.62
- Fold change (week 11/week 0) in relative species abundance (Symbol BACT_499, Number 35): 0.73
- Fold change (week 11/week 0) in relative species abundance (Symbol BACT_511, Number 591): 1.55
- Fold change (week 11/week 0) in relative species abundance (Symbol BACT_535, Number 940): 0.66
- Fold change (week 11/week 0) in relative species abundance (Symbol BACT_539, Number 117): 0.75
- Fold change (week 11/week 0) in relative species abundance (Symbol BACT_551, Number 907): 0.73
- Fold change (week 11/week 0) in relative species abundance (Symbol BACT_572, Number 963): 0.92
- Fold change (week 11/week 0) in relative species abundance (Symbol BACT_627, Number 886): 0.66
- Fold change (week 11/week 0) in relative species abundance (Symbol BACT_681, Number 125): 1.55
- Fold change (week 11/week 0) in relative species abundance (Symbol BACT_722, Number 377): 1.47
- Fold change (week 11/week 0) in relative species abundance (Symbol BACT_843, Number 1318): 0.69
- Fold change (week 11/week 0) in relative species abundance (Symbol BACT_850, Number 394): 1.86
- Fold change (week 11/week 0) in relative species abundance (Symbol BACT_852, Number 766): 0.88
- Fold change (week 11/week 0) in relative species abundance (Symbol BACT_855, Number 835): 1.23
- Fold change (week 11/week 0) in relative species abundance (Symbol BACT_890, Number 163): 0.74
- Fold change (week 11/week 0) in relative species abundance (Symbol BACT_913, Number 904): 1.17
- Fold change (week 11/week 0) in relative species abundance (Symbol BACT_915, Number 1315): 1.23
- Fold change (week 11/week 0) in relative species abundance (Symbol BACT_1001, Number 933): 0.79
- Fold change (week 11/week 0) in relative species abundance (Symbol BACT_1083, Number 1008): 2.25
- Fold change (week 11/week 0) in relative species abundance (Symbol BACT_1131, Number 942): 0.79
- Fold change (week 11/week 0) in relative species abundance (Symbol BACT_1311, Number 1259): 1.16
- Fold change (week 11/week 0) in relative species abundance (Symbol BACT_1321, Number 1255): 1.16
- Fold change (week 11/week 0) in relative species abundance (Symbol BACT_1322, Number 1396): 1.50
- Fold change (week 11/week 0) in relative species abundance (Symbol BACT_1324, Number 1264): 2.61
- Fold change (week 11/week 0) in relative species abundance (Symbol BACT_1348, Number 1311): 1.15
- Fold change (week 11/week 0) in relative species abundance (Symbol BACT_1378, Number 1375): 2.83
- Fold change (week 11/week 0) in relative species abundance (Symbol BACT_1427, Number 1266): 1.13
- Fold change (week 11/week 0) in relative species abundance (Symbol BACT_1442, Number 1400): 1.75
- Fold change (week 11/week 0) in relative species abundance (Symbol BACT_1457, Number 1337): 0.82
- Fold change (week 11/week 0) in relative species abundance (Symbol BACT_1501, Number 1331): 0.79
- Fold change (week 11/week 0) in relative species abundance (Symbol BACT_1526, Number 1227): 1.58
- Fold change (week 11/week 0) in relative species abundance (Symbol BACT_1555, Number 1469): 0.62
- Fold change (week 11/week 0) in relative species abundance (Symbol BACT_1569, Number 1462): 0.78
- Fold change (week 11/week 0) in relative species abundance (Symbol BACT_1595, Number 1533): 1.13
- Fold change (week 11/week 0) in relative species abundance (Symbol BACT_1656, Number 1503): 1.55
- Fold change (week 11/week 0) in relative species abundance (Symbol BACT_3004, Number 5797): 1.54
- Fold change (week 11/week 0) in relative species abundance (Symbol BACT_3005, Number 5799): 1.56
- Fold change (week 11/week 0) in relative species abundance (Symbol BACT_3007, Number 5798): 0.94
- Fold change (week 11/week 0) in relative species abundance (Symbol BACT_3024, Number 5841): 0.72
- Fold change (week 11/week 0) in relative species abundance (Symbol BACT_3045, Number 5818): 1.19
- Fold change (week 11/week 0) in relative species abundance (Symbol BACT_3058, Number 5816): 1.54
- Fold change (week 11/week 0) in relative species abundance (Symbol BACT_3060, Number 5821): 1.62
- Fold change (week 11/week 0) in relative species abundance (Symbol BACT_3062, Number 5800): 1.49
- Fold change (week 11/week 0) in relative species abundance (Symbol BACT_3085, Number 5842): 1.90
- Fold change (week 11/week 0) in relative species abundance (Symbol BACT_4040, Number 5769): 16.24
- Fold change (week 11/week 0) in relative species abundance (Symbol BACT_4042, Number 5770): 0.28
- Fold change (week 11/week 0) in relative species abundance (Symbol EUKY_222, Number 1954): 1.60
- Fold change (week 11/week 0) in relative species abundance (Symbol V1RL3522, Number 3522): 2.13

— patent US20190022152A1, “MICROBIOME RESPONSE TO AGENTS” (Yeda Research and Development Co., Ltd., priority 2014, published 2019)
